# From ChEMBL document CHEMBL1201862, “PubChem BioAssay data set” (2004)
#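 Protocol summary: plate cells (96-well), add compound at 5 concentrations, incubate 48 h, interpolate endpoints linearly. The concentration for 50% growth inhibition is given as GI50.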 The source made the active and inactive calls. No stated cut-off is given here; in the data, active = GI50 up to about 1.1 µM and inactive = higher.
# Columns and labels:
# Experiment in all cases: inhibition of tumour cell growth, NCI panel, 48 h
# DU-145 = tested on: DU-145
# M14 = tested on: M14
# KM12 = tested on: KM12
# UO-31 = tested on: UO-31
# TK-10 = tested on: TK-10
# UACC-62 = tested on: UACC-62
# OVCAR-5 = tested on: OVCAR-5
# SK-MEL-2 = tested on: SK-MEL-2
# MDA-MB-435 = tested on: MDA-MB-435
# SK-MEL-28 = tested on: SK-MEL-28
# SF-539 = tested on: SF-539
# MDA-MB-231 = tested on: MDA-MB-231
# CCRF-CEM = tested on: CCRF-CEM
# SN12C = tested on: SN12C
# T47D = tested on: T47D
# SW-620 = tested on: SW-620
# A498 = tested on: A498
# NCI/ADR-RES = tested on: NCI/ADR-RES
# MDA-N = tested on: MDA-N
# K562 = tested on: K562
SMILES,GI50 (DU-145),GI50 (M14),GI50 (KM12),GI50 (UO-31),GI50 (TK-10),GI50 (UACC-62),GI50 (OVCAR-5),GI50 (SK-MEL-2),GI50 (MDA-MB-435),GI50 (SK-MEL-28),GI50 (SF-539),GI50 (MDA-MB-231),GI50 (CCRF-CEM),GI50 (SN12C),GI50 (T47D),GI50 (SW-620),GI50 (A498),GI50 (NCI/ADR-RES),GI50 (MDA-N),GI50 (K562)
CCOC(=O)c1c(OCC)[nH]c(=O)c(C(c2cccs2)c2c(O)c(C(=O)OCC)c(OCC)[nH]c2=O)c1O,13.9 µM (inactive),16.1 µM (inactive),17.9 µM (inactive),10.9 µM (inactive),25.4 µM (inactive),14.2 µM (inactive),26.5 µM (inactive),12.8 µM (inactive),14.5 µM (inactive),13.1 µM (inactive),6.4 µM (inactive),11.1 µM (inactive),14.2 µM (inactive),15.4 µM (inactive),98.9 nM (active),12.1 µM (inactive),2.67 µM (inactive),27.4 µM (inactive),–,–
CNc1nc(N)nc(Nc2ccc(I)cc2)c1N=O,> 100 µM (inactive),–,> 100 µM (inactive),27 µM (inactive),> 100 µM (inactive),48 µM (inactive),> 100 µM (inactive),> 100 µM (inactive),> 100 µM (inactive),> 100 µM (inactive),> 100 µM (inactive),> 100 µM (inactive),> 100 µM (inactive),> 100 µM (inactive),–,> 100 µM (inactive),–,> 100 µM (inactive),> 100 µM (inactive),68.2 µM (inactive)
Cc1nc(C(N)=S)sc1/C(CC(=O)C(=O)Nc1cccc2ccc(O)cc12)=N\NC(=O)c1ccncc1,55.3 µM (inactive),> 100 µM (inactive),> 100 µM (inactive),98.2 µM (inactive),77.8 µM (inactive),29.5 µM (inactive),> 100 µM (inactive),> 100 µM (inactive),> 100 µM (inactive),74.8 µM (inactive),94.2 µM (inactive),> 100 µM (inactive),33.4 µM (inactive),35.1 µM (inactive),–,> 100 µM (inactive),–,> 100 µM (inactive),63.5 µM (inactive),–
O=C(Cn1cc(-c2ccccc2)nn1)NC1CCCCC1,> 100 µM (inactive),> 100 µM (inactive),> 100 µM (inactive),–,> 100 µM (inactive),–,> 100 µM (inactive),> 100 µM (inactive),> 100 µM (inactive),> 100 µM (inactive),> 100 µM (inactive),> 100 µM (inactive),> 100 µM (inactive),> 100 µM (inactive),–,> 100 µM (inactive),–,> 100 µM (inactive),–,> 100 µM (inactive)
CCCCCCCC(=O)OC(CBr)COC(=O)C(C)(C)C (configuration not stated),–,> 100 µM (inactive),> 100 µM (inactive),> 100 µM (inactive),> 100 µM (inactive),> 100 µM (inactive),> 100 µM (inactive),> 100 µM (inactive),–,> 100 µM (inactive),> 10 µM (inactive),–,33 µM (inactive),> 100 µM (inactive),–,> 100 µM (inactive),> 100 µM (inactive),–,–,32.5 µM (inactive)
O=C(CSCC(=O)N/N=C\c1ccccc1F)N/N=C\c1ccccc1F,> 100 µM (inactive),> 100 µM (inactive),92.9 µM (inactive),> 100 µM (inactive),> 100 µM (inactive),> 100 µM (inactive),–,> 100 µM (inactive),68.5 µM (inactive),> 100 µM (inactive),> 100 µM (inactive),> 100 µM (inactive),90.4 µM (inactive),> 100 µM (inactive),77600 nM (inactive),> 100 µM (inactive),> 100 µM (inactive),14 µM (inactive),–,–
O=C1C=C(Br)C(=O)C(Br)=C1,–,> 100 µM (inactive),> 100 µM (inactive),> 100 µM (inactive),> 100 µM (inactive),> 100 µM (inactive),> 100 µM (inactive),> 100 µM (inactive),–,> 100 µM (inactive),> 100 µM (inactive),–,> 50.1 µM (inactive),> 59.6 µM (inactive),–,59.7 µM (inactive),> 100 µM (inactive),–,–,33.3 µM (inactive)
COC(=O)[C@@]12CCCC(=O)[C@@H]1[C@H]1CCCC[C@H]12,> 100 µM (inactive),> 100 µM (inactive),> 100 µM (inactive),> 100 µM (inactive),> 100 µM (inactive),> 100 µM (inactive),> 100 µM (inactive),> 100 µM (inactive),> 100 µM (inactive),> 100 µM (inactive),> 100 µM (inactive),> 100 µM (inactive),59.2 µM (inactive),> 100 µM (inactive),–,> 100 µM (inactive),–,> 100 µM (inactive),> 100 µM (inactive),35.8 µM (inactive)
COc1ccc(N2C(=O)C3c4[nH]c5ccccc5c4C4CCCCCCCCCCC4C3C2=O)cc1 (configuration not stated),–,7.8 µM (inactive),7.03 µM (inactive),> 40.6 µM (inactive),> 43.8 µM (inactive),18.5 µM (inactive),> 37.1 µM (inactive),> 100 µM (inactive),–,11.9 µM (inactive),11 µM (inactive),–,9.27 µM (inactive),4.89 µM (inactive),–,4.58 µM (inactive),9.4 µM (inactive),–,–,19 µM (inactive)
C[n+]1c(-c2ccccc2)cc2/c(=C\c3ccc([N+](=O)[O-])cc3)c3ccccc3n21,1.74 µM (inactive),5.24 µM (inactive),3.29 µM (inactive),6.05 µM (inactive),9.06 µM (inactive),6.35 µM (inactive),6.85 µM (inactive),3.01 µM (inactive),2.54 µM (inactive),7.41 µM (inactive),0.615 µM (active),3.24 µM (inactive),0.692 µM (active),2.17 µM (inactive),–,1.79 µM (inactive),11 µM (inactive),> 100 µM (inactive),2.37 µM (inactive),–
COC1CC2CCC(C)[C@](O)(O2)C(=O)C(=O)N2CCCCC2C(=O)OC(C(C)CC2CCC(O)C(OC)C2)CC(=O)C(C)C=C(C)C(OC(=O)CN(C)C)C(OC)C(=O)C(C)CC(C)/C=C/C=C/C=C\1C (some centres not stated),7.38 µM (inactive),7.43 µM (inactive),9.59 µM (inactive),< 0.01 µM (active),11.6 µM (inactive),< 0.01 µM (active),12.6 µM (inactive),< 0.0419 µM (active),2.69 µM (inactive),0.973 µM (active),< 0.01 µM (active),3.67 µM (inactive),< 0.01 µM (active),–,< 10 nM (active),–,< 0.01 µM (active),–,–,< 0.01 µM (active)
COc1cc(/C=C\c2ccccc2)cc(OC)c1OC,–,2.51 µM (inactive),4.04 µM (inactive),4.46 µM (inactive),3.94 µM (inactive),2.49 µM (inactive),10.3 µM (inactive),4.07 µM (inactive),–,6.28 µM (inactive),2.56 µM (inactive),–,2.99 µM (inactive),5 µM (inactive),–,2.84 µM (inactive),5.24 µM (inactive),–,–,0.514 µM (active)
